Measured values reported in patent publication US20210345611A1, “EXTENDED AND CONTINUOUS RELEASE COMPOSITIONS FOR PLANT HEALTH AND METHOD OF USE” (Verdesian Life Sciences U.S., LLC, priority 2018, published 2021).

Assay: PGA stability in 250 mM sodium phosphate aqueous buffers (HPLC)
Format: physicochemical
Protocol: Analytical note: PGA measurements in this section are done on a free acid basis using HPLC techniques, with PGA peak in each analysis checked for purity using UV-Vis spectroscopy technique by comparison with a known standard reference material. Experiments were conducted to determine the relative stability of PGA to degradation in 250 mM sodium phosphate aqueous buffers at pH levels of interest representing pH levels commonly found in soils. PGA is sufficiently stable at the pH levels of interest. PGA/pH 5.75 L-Pyroglutamic acid was dissolved to a concentration of about 1.0% in 250 mM sodium phosphate aqueous buffer at pH of 5.75, and stored for 24 hours at 50 degrees C. […] PGA/pH 6.75 L-Pyroglutamic acid was dissolved to a concentration of about 1.0% in 250 mM sodium phosphate aqueous buffer at pH of 6.75, and stored for 24 hours at 50 degrees C. […] PGA/pH 7.75 L-Pyroglutamic acid was dissolved to a concentration of about 1.0% in 250 mM sodium phosphate aqueous buffer at pH of 7.75, and stored for 24 hours at 50 degrees C.

decomposition by HPLC analysis (about 1.0% in 250 mM sodium phosphate buffer pH 5.75, 24 hours at 50 degrees C): No detectable decomposition
decomposition by HPLC analysis (about 1.0% in 250 mM sodium phosphate buffer pH 6.75, 24 hours at 50 degrees C): No detectable decomposition
decomposition by HPLC analysis (about 1.0% in 250 mM sodium phosphate buffer pH 7.75, 24 hours at 50 degrees C): No detectable decomposition
SMILES: O=C1CC[C@@H](C(=O)O)N1 [L-Pyroglutamic acid]
